In data set [1] the test system is lymphoma cell line L5178Y TK-/-. The experiment in a line: Test (d): cytotoxicity to lymphoma cell line L5178Y TK-/- in vitro. It counts as cell-based. The settings on record: Mus musculus. An excerpt: (d) An assay which determines the ability of a test compound to be cytotoxic to the lymphoma cell line L5178Y TK-/- in vitro. The lymphoma cell line L5178Y TK-/- is deficient in the enzyme thymidine kinase with phosphorylates thymidine and thus operates to generate a pool of thymidylate when de novo synthesis of thymidylate is prevented by the presence of an effective amount of an inhibitor of thymidylate synthase. The L5178Y TK-/- cell line is thereby more sensitive to the presence of an inhibitor of thymidylate synthase. [L5178Y TK-/- was obtained by mutation of the parent L5178Y cell line which is described by, for example, Fischer et al., Methods in Medical Research, 1964, 10, 247].

For data set [2], the system named is leukaemia cell line L1210. The experiment in a line: Test (b): inhibition of growth of leukaemia cell line L1210 in cell culture. The class given is cell-based. Conditions: Mus musculus. An excerpt:
(b) An assay which determines the ability of a test compound to inhibit the growth of the leukaemia cell line L1210 in cell culture. The test is similar to that described in UK Patent Specification No. 2065653B and has been described by Jones et al., J. Med. Chem., 1985, 28, 1468;

A further data set addresses T1, thymidylate synthase (Mus musculus, UniProt P07607).
T1 construct: Thymidylate synthase was obtained in partially purified form from L1210 mouse leukaemia cells; endogenous in cells; host or cells: L1210 mouse leukaemia cells (enzyme partially purified)
The experiment in a line: Test (a): in vitro inhibition of thymidylate synthase. The class given is biochemical. The settings on record: partially purified thymidylate synthase from L1210 mouse leukaemia cells. An excerpt:
(a) An in vitro assay which determines the ability of a test compound to inhibit the enzyme thymidylate synthase. Thymidylate synthase was obtained in partially purified form from L1210 mouse leukaemia cells and utilised using the procedures described by Jackman et al. (Cancer Res., 1986, 46, 2810 and Sikora et al., Biochem. Pharmacol. 1988, 37 4047);

Data set [3] deals with human breast cancer cell line MCF-7. The experiment in a line: Test (c): inhibition of growth of human breast cancer cell line MCF-7 in cell culture. The settings on record: MCF7, MCF-7 cell growth. The class given is cell-based. An excerpt:
(c) An assay which determines the ability of a test compound to inhibit the growth of the human breast cancer cell line MCF-7 in cell culture. The test is similar to that described by Lippman et al. (Cancer Res., 1976, 36, 4595) and […]

Data set [4] has as its system human breast, ovarian and liver cancer. The settings on record: clinical, in words; cited from earlier work.
The conditions of data set [5]: Cancer Treatment Reports, 1986, 70, 1335; in words; cited from earlier work.

Each structure is given as a SMILES string.

T1 sequence (P07607 whole entry): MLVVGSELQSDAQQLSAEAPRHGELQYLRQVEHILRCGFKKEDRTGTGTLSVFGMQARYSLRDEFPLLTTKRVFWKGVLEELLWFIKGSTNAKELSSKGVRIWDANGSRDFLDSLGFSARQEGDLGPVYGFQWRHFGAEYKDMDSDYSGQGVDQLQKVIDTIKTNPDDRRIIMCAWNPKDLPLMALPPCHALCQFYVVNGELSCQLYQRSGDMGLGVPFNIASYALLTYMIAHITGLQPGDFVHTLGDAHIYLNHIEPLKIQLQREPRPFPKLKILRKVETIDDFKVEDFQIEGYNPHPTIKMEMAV

Regarding `C#CCN(c1ccc(C(=O)N[C@@H](CCC(=O)O)C(=O)O)cc1)C1CCc2cc3nc(C)[nH]c(=O)c3cc21` (mixture of isomers) [Example 1, N-{p-[N-((6RS)-2-methyl-4-oxo-3,4,7,8-tetrahydro-6H-cyclopenta[g]quinazolin-6-yl)-N-(prop-2-ynyl)amino]benzoyl}-L-glutamic acid], the IC50 in data set [1] came out at 720 nM; in data set [2], 280 nM; on thymidylate synthase, 7 nM; in data set [3], 20 nM.
Turning to `C#CCN(Cc1ccc2nc(N)[nH]c(=O)c2c1)c1ccc(C(=O)N[C@@H](CCC(=O)O)C(=O)O)cc1` [CB3717], the “activity against human breast, ovarian and liver cancer” value in data set [4] is “promising activity against human breast, ovarian and liver cancer”. For the same compound, the toxicity in humans entry in data set [5] is “shows symptoms of toxicity in humans, particularly in relation to the liver and kidney”.

The record behind these values is US5789417A, “Tricyclic compounds with pharmaceutical activity” (Zeneca Limited, priority 1992, dated 1998).
